Laboratory results from patent US11234960B2, “Compositions and methods for improving mitochondrial function and treating neurodegenerative diseases and cognitive disorders” (Amazentis SA, priority 2010, dated 2022).

How the values were obtained:
Assay type in all cases: in vivo
[1] = test system: maternally separated mice; test: Elevated O-maze in early-life stress mice; details: 90 mg/kg/day in food (FIG. 40)
Experimental: (§1) At postnatal day 1, pups were culled to have 6 pups per mother. From postnatal day 1 to 14, unpredictable maternal separation (MS) of a period of 3 hours daily was carried out. Maternal separation was performed at random times (from 8 am to 2 pm) to avoid the habituation of the mother to the procedure. The protocol consisted of removing pups from their mother to another cage at room temperature for a 3 hour period, after which the pups were returned to their original nest. These groups are denoted as early-life stress in the figures. A control group of dam/pups was left undisturbed and is denoted in the figures as normal.
(§2) One week after maternal separation mice were separated into two groups. One control group received the standard mouse chow diet (Untreated), while the other group received the ellagitannin punicalagin admixed into the food and designed to deliver a dose of 90 mg/kg/day to the mice. Treatment with the diet began 1 week after the termination of the maternal separation treatment. […]
To examine the effect of early life stress, mice were placed at the entrance of one of the areas of the maze with the 5 cm walls, with the nose facing the closed arm, and were allowed to explore the EOM for 5 min. […] The time spent in each arm (closed versus open) was calculated, with an entry into the arm only being considered to have occurred when the animal placed all four paws in the arm.

[2] = test system: maternally separated mice; test: Morris water maze in early-life stress mice; details: early-life stressed mice, 90 mg/kg/day (FIG. 45)
Experimental: as §1, §2
The Morris water maze behavioral assay was employed to assess the cognitive impact of maternal separation. In this assay, cognitive learning is measured by the ability of a mouse to locate a hidden platform in a pool of opaque water. […] Escape latency to reach the platform was measured by a video tracking system.

[3] = test system: maternally separated mice; test: Forced swim test in early-life stress mice; details: early-life stressed mice, 90 mg/kg/day in food (FIG. 41)
Experimental: as §1, §2
Animals were considered to be engaged in swimming and mobile if there was a clear displacement of the body. […] Animal behavior was recorded over a 6-minute test period using a camera and a mirror behind the cylinder. The first 2 minutes and the last 4 minutes of the swimming were analyzed separately for mouse swimming activity. […]

[4] = test system: maternally separated mice; test: Dark/light box test in early-life stress (maternal separation) mice; details: 90 mg/kg/day in food (FIG. 39)
Experimental: as §1
One week after maternal separation mice were separated into two groups. One control group received the standard mouse chow diet (Untreated), while the other group received the ellagitannin punicalagin admixed into the food and designed to deliver a dose of 90 mg/kg/day to the mice. Treatment with the diet began 1 week after the termination of the maternal separation treatment.
The effects of early-life stress on depression, anxiety and cognition were examined utilizing the following behavioral assays which were carried out 166 days after the completion of the maternal separation protocol. Normally raised mice were compared versus maternally separated mice (early-life stress) and maternally separated mice treated with punicalagin. […]

C. elegans strain SJ4103 = test: Mitochondrial GFP reporter in muscle of C. elegans strain SJ4103; details: 50 μM from eggs, GFP monitored after one day of adulthood (FIG. 26)
Experimental: C. elegans strains were cultured at 20° C. on nematode growth media agar plates seeded with HT115 bacteria and containing 50 μM urolithin A or a corresponding concentration of DMSO as a control. […]. The strains used were the SJ4103 (zcIs14[myo-3::GFP(mit)]), which is a stable transgenic line expressing a mitochondrially localized green fluorescent protein (GFP) with a cleavable mitochondrial import signal peptide under the control of the specific body wall muscle promoter myo-3. GFP expression and quantification was carried out according to the protocol previously described (Durieux et al., 2011). Worms were treated with 50 μM urolithin A from eggs, and GFP was monitored after one day of adulthood. Fluorimetric assays were performed using a Victor X4 multilabel plate reader (Perkin-Elmer Life Science). Eighty worms were picked at random (20 worms per well of a black-walled 96-well plate) and each well was read four times and averaged.

Compound | time spent in open sections of O-maze (risk taking) [1] | escape latency in Morris water maze (cognitive learning) [2] | immobility / swimming activity in forced swim test [3] | time spent in lit area (risk-taking behavior) [4] | expression of mitochondrial GFP-reporter driven by myo-3 promoter (fluorescence) (C. elegans strain SJ4103)
O=C1O[C@H]2[C@@H]3OC(=O)c4cc(O)c(O)c(O)c4-c4c(O)c(O)c5oc(=O)c6c(c(O)c(O)c7oc(=O)c4c5c76)-c4c(cc(O)c(O)c4O)C(=O)OC[C@H]3OC(O)[C@@H]2OC(=O)c2cc(O)c(O)c(O)c2-c2c1cc(O)c(O)c2O (mixture of isomers) [punicalagin, 2,3 hexahydroxydiphenoyl-4,6-gallagylglucose] | reversed and normalized their abnormal excessive risk taking behaviour | reducing the time to learn the location of the hidden platform to levels observed in normal non-stressed mice | increased swimming activity to levels seen in non-stressed mice | reversed and normalized the excessive risk-taking behavior | –
O=c1oc2cc(O)ccc2c2ccc(O)cc12 [urolithin A, 3,8-Dihydroxydibenzo-α-pyrone] | – | – | – | – | induced the expression of the mitochondrial GFP-reporter
